Experimental data taken from patent publication US12172964B2, “Tricyclic octacationic cyclophane and its use in complexation with perlene diimide dyes” (Northwestern University, priority 2020, dated 2024).
Where “and” joins values, the source holds several entries; their conditions need not be identical. Equal entries are not always repeated. Marks after values point to notes of the source that are not given here.

Experiments:
[1] = Isothermal titration calorimetry (ITC); type: binding; conditions: for ΔG: directly determined by ITC
Procedure: In all ITC experiments, ExBox.4Cl and XCage.8CF3CO2 were used in titrations. Here we use ExBox^4+ and XCage^8+ for short. All of the solutions were prepared in spectroscopic grade solvents and equilibrated for 24 h at room temperature before use. All of the titrations were independently duplicated—shown below is one set of titration isotherms—and all isotherm fittings were used to calculate the average Ka and ΔH with relevant standard errors.
Isothermal titration was performed by TA Nano Isothermal Titration Calorimeter at 25° C. A hastelloy cell was used with an active cell volume 190 μL. The stirring speed was set at 150 rpm. Receptor and substrate solutions were prepared in Milli-Q water or MeCN and allowed to equilibrate overnight if necessary. […] After subtracting the heat of dilution, the resulting data were analyzed with NanoAnalyze software using a 1:1 binding model and plotted by Origin Lab 8.6 software.

[2] = Binding thermodynamics of ExBox.4Cl towards PDI2 in water (fluorescence titration / ITC)
Procedure: Direct fluorescence titration experiments: […] All of the solutions were prepared in spectroscopic grade solvents and equilibrated for 24 h at room temperature before use. All of the titrations were independently duplicated—shown below is one set of titration isotherms—and all isotherm fittings were used to calculate the average Ka and ΔH with relevant standard errors. Isothermal titration was performed by TA Nano Isothermal Titration Calorimeter at 25° C. A hastelloy cell was used with an active cell volume 190 μL. The stirring speed was set at 150 rpm. Receptor and substrate solutions were prepared in Milli-Q water or MeCN and allowed to equilibrate overnight if necessary.

[3] = Binding constants by direct and displacement fluorescence titration; conditions: for Ka Fluorescence / ΔG: 25° C.; for ΔG: estimated from fluorescence titrations
Procedure: (§1) In all experiments shown below, ExBox.4Cl and XCage.8CF3CO2 were used in titration studies. Here we use ExBox^4+ and XCage^8+ for short. All of the solutions were prepared in spectroscopic grade solvents and equilibrated for 24 h at room temperature before use. All of the studies were independently duplicated and the corresponding isotherms were fitted to calculate the average Ka or kon values with the relevant standard errors.
Direct fluorescence titration experiments: Since the association between PDI2 and ExBox^4+ in H2O produces turn-on fluorescence, we tracked the increase of fluorescence (ex: 545 nm, em: 555 nm) of PDI2 by varying equivalents of ExBox^4+. Caffeine is not fluorescent in H2O and its association with XCage^8+ quenches the fluorescence of XCage^8+. Thus, the fluorescence quenching of XCage^8+ was tracked by the addition of Caffeine. In MeCN, the fluorescence of perylene is quenched by XCage^8+ and thus the titration was performed by tracking the fluorescence quenching of Perylene. A plot of fluorescent intensity versus receptor concentration [R]0 or substrate concentration [S]0 was fitted with a nonlinear least-squares fitting equation for 1:1 binding model to calculate the binding constant Ka using Origin Lab 8.6 software.^S14, S15
Displacement fluorescence titration experiments in H2O: A large access of the competitor caffeine (10 mM) was pre-mixed with XCage^8+ (10 μM), and the solution was equilibrated for 30 min before titration. The substrate solution of PDI2 was injected in aliquots. For each injection, the guest displacement process was relatively slow and took about 3-10 min to reach the equilibrium as monitored by the change of fluorescence (ex: 560 nm, em: 660 nm) over time. At this excitation wavelength, PDI2⊂XCage^8+ is fluorescent; XCage^8+, PDI2 and Caffeine are nonfluorescent. The association constants were calculated by fitting the titration data with a nonlinear least-squares fitting equation for displacement binding using Origin Lab 8.6 software.^S14
Displacement fluorescence titration experiments in MeCN: Perylene (250 μM) was premixed with XCage^8+ (5 μM) in MeCN, and the solution was equilibrated for 30 min before titration. The substrate solution of PDI2 was injected in aliquot amount. Between each injection, the change of fluorescence intensity was monitored over time until the fluorescence (ex: 550 nm, em: 660 nm) intensity reached a steady state. At this excitation wavelength, […] is fluorescent while XCage^8+ and PDI2 are nonfluorescent. The association constants were calculated by fitting the titration data with a nonlinear least-squares fitting equation for displacement binding using Origin Lab 8.6 software.^S14

Solubility observations = type: physicochemical
[4] = Photophysical characterization; type: physicochemical
Procedure: Commercially available solvents and chemicals were purchased from Sigma-Aldrich and Fisher Scientific and used without further purification unless otherwise stated. Water was deionized, and micro filtered using Milli-Q water filtration station. Compounds PDI1^S1 and ExBox.4Cl^S2 were prepared using previously reported procedures. Thin layer chromatography (TLC) was performed on silica gel 60 F254 (E. Merck). Flash column chromatography was performed by Combiflash Rf 200 purification system. Reverse phase column chromatography was performed on Combiflash NEXTGEN 300+ system with SNAP ULTRA C18 cartridges which were purchased from Biotage. UV/Vis Absorption spectra were recorded in a glass cuvette using a UV-3600 Shimadzu spectrophotometer. Steady-state emission spectra were acquired in a quartz cuvette with an optical path-length of 10 mm containing the solution of interest using HORIBA Fluoromax4 spectrofluorometer, which was equipped with an integrating sphere for absolute photoluminescence quantum yield determination and time-correlated single-photon counting (TCSPC) module for emission decays. Nuclear magnetic resonance (NMR) spectra were recorded on Bruker AVANCE III 500 MHz spectrometer equipped with DCH CryoProbe, with working frequencies of 500 MHz for ^1H and 125 MHz for ^13C nuclei. […] High-resolution mass spectra were measured on an Agilent 6210 Time of Flight (TOF) LC-MS, using an ESI source, coupled with Agilent 1100 HPLC stack, using direct infusion (0.6 mL/min). Single crystal data were obtained on a Bruker Kappa APEX2 CCD diffractometer using Cu-Kα radiation. Detailed experimental procedures are provided below in the appropriate sections.
The fluorescence quantum yield of PDI dyes were measured by using rhodamine 6G in EtOH (Φf=0.95) as standard.^S2 The concentrations of rhodamine 6G and PDI dyes were adjusted to the absorption value 0.08 at 450 nm. The fluorescence spectrum of each solution was obtained with excitation at 450 nm, and the integrated area was used in the fluorescence quantum yield calculation. The estimated error for this method^S13 is ±10%. The fluorescent life-time was measured by Horiba Fluoromax-4 fluorometer equipped with TCSPC. Samples were excited by a laser at 374 nm, and the fluorescence decay over time was monitored at 560 nm. The fluorescent decay profiles were analyzed by a DAS6 software and matched either by a single exponential decay or double exponential decay model through mathematic fittings.

[5] = Binding kinetics of threading PDI2 into XCage.8CF3CO2, tracked by turn-on fluorescence; conditions: water, second order kinetic model
Procedure: as §1
Equal volume of PDI2 (1 μL, 100 μM) and XCage^8+ (1 μL, 100 μM) were mixed in H2O (1 mL) and the change of fluorescence (ex: 540 nm, em: 554 nm) was monitored over time. The resulting threading kinetics profiles were fitted using a second order kinetics model by Origin Lab 8.6 software. In MeCN, the change of fluorescence over time upon the formation of PDI2⊂XCage^8+ is too small to produce a kinetics profile as a result of the similar quantum yield between PDI2⊂XCage^8+ and PDI2.

MCF-7 cells [6] = test: Live-cell confocal microscopy; type: cell-based, human; conditions: MCF-7, 10 μM, 6 h
Procedure: (§2) MCF-7 cells (human breast adenocarcinoma cell line) obtained from American Type Culture Collection (ATCC, Rockville, Md., USA) was utilized for cell culture experiments. MCF-7 cells were cultured in Dulbecco's Modified Eagle's Medium (DMEM) supplemented with 10% fetal bovine serum (FBS), penicillin (100 IU/mL) and streptomycin (100 μg/mL) at 37° C. in the presence of air (95%) and carbon dioxide (5%).
(§3) MCF-7 cells (1×10^5 cells/ml, 300 μL) were plated in each well of an 8-well chamber slide (ThermoFischer Scientific) and adhered overnight. PDI2 or PDI2⊂XCage^8+ was added to each well and incubated for 6 h or 24 h. Cells were then washed with PBS, and stained with LysoTracker green (lysosome stain, 1:1000 dilution) or NucBlue™ Live ReadyProbes™ Reagent (nuclear stain, 1 drop) or Hoechst 33342 nucleic acid stain (1:2000 dilution from 10 mg/mL stock). Plated cells were imaged within a humidified chamber using a 63× oil-immersion objective on a SP5 Leica Confocal Microscope using HyD detectors and lasers or a Deltavision Core Elite with a DAPI excitation filter (381-399 nm), DAPI emission filter (em: 411-459 nm) and TRITC emission filter (em: 571-617 nm) at equivalent light levels and exposure time. Intensity of signal in cells was measured with FIJI/ImageJ software.

MCF-7 cells [7] = test: Live-cell widefield fluorescence imaging using energy transfer; type: cell-based, human; conditions: MCF-7, 20 μM, 6 h
Procedure: as §2, §3

Cn1c(=O)c2c(ncn2C)n(C)c1=O [Caffeine, reference compound]
TΔS ([1]; H2O, 25° C.): −1.5 kcal mo1^−1 | ΔH ([1]; H2O, 25° C.): −8.6 kcal mo1^−1 | ΔG ([1]; H2O, 25° C.): −7.1^c kcal mo1^−1

c1cc2ccc1C[n+]1ccc(cc1)-c1ccc(cc1)-c1cc[n+](cc1)Cc1ccc(cc1)C[n+]1ccc(cc1)-c1ccc(cc1)-c1cc[n+](cc1)C2 [ExBox.4Cl]
binding affinity [2]: 2e+06 M⁻¹ | binding enthalpy [2]: -7.4 kcal/mol

c1cc2cccc3c4cccc5cccc(c(c1)c23)c54 [Perylene, reference compound]
Ka Fluorescence ([3]; MeCN, PDI2 by displacement of 50 molar equivalents of Perylene): 5e+06 M⁻¹ | Ka ITC ([1]; MeCN, 25° C.): 3.6e+06 M⁻¹ | TΔS ([1]; MeCN, 25° C.): 2.0 kcal mo1^−1 | ΔH ([1]; MeCN, 25° C.): −06.9 kcal mo1^−1 | ΔG ([1]; MeCN, 25° C.): −08.9^c kcal mo1^−1

c1cc2ccc1C[n+]1ccc(cc1)-c1cc3cc(c1)-c1cc4cc(c1)-c1cc[n+](cc1)Cc1ccc(cc1)C[n+]1ccc(cc1)-c1cc(cc(c1)-c1cc(cc(c1)-c1cc[n+](cc1)Cc1ccc(cc1)C[n+]1ccc-3cc1)-c1cc[n+](cc1)C2)-c1cc[n+](cc1)Cc1ccc(cc1)C[n+]1ccc-4cc1 [XCage.8CF3CO2]
binding constant for Perylene, times higher than that of ExBox^4+.4PF6 ([3]; MeCN): about 86 | enhancement of binding affinity towards PDI2 compared with ExBox.4Cl (factor) ([3]; water): 38,000 | TΔΔS, loss of binding entropy compared with ExBox.4Cl ([1]; water, guest PDI2): -0.5 kcal/mol | ΔΔH, gain in binding enthalpy compared with ExBox.4Cl ([1]; water, guest PDI2): -6.7 kcal/mol | solubility (Solubility observations; MeCN): slightly soluble | solubility (Solubility observations; water and MeOH): highly soluble | blue fluorescence emission range ([4]; water): 350-550 nm | fluorescence quantum yield ([4]; water): 10%

COCCOCCOCCOCCOCCOCCOCCOCCOCCOCCOCCOCCOCCOCCOCCOCCOCCOCCOCCOCCOCCOCCOCCOCCOCCOCCOCCOCCOCCOCCOCCOCCOCCOCCOCCOCCOCCOCCOCCOCCOCCOCCOCCOCCOCCN1C(=O)c2ccc3c4ccc5c6c(ccc(c7ccc(c2c37)C1=O)c64)C(=O)N(CCOCCOCCOCCOCCOCCOCCOCCOCCOCCOCCOCCOCCOCCOCCOCCOCCOCCOCCOCCOCCOCCOCCOCCOCCOCCOCCOCCOCCOCCOCCOCCOCCOCCOCCOCCOCCOCCOCCOCCOCCOCCOCCOCCOCCOC)C5=O [PDI2]
ΔG ([3]; H2O): −14.8^d kcal mo1^−1 | Ka Fluorescence ([3]; H2O, PDI2 by displacement in presence of 1000 molar equivalents of Caffeine): 7.7e+10 M⁻¹ | ΔG ([3]; MeCN): −13.0^d kcal mo1^−1 | TΔS ([1]; H2O, 25° C.): 0.7 kcal mo1^−1 | ΔH ([1]; H2O, 25° C.): −14.1 kcal mo1^−1 | TΔS ([1]; MeCN, 25° C.): 2.8 kcal mo1^−1 | ΔH ([1]; MeCN, 25° C.): −10.2 kcal mo1^−1 | binding enthalpy in water higher than in MeCN ([1]; water versus MeCN): 4 kcal/mol | kon [5]: (4.8±1.1)×10^5 M^−1s^−1 | fluorescence in brightfield-merged confocal images (MCF-7 cells [6]): no fluorescence | fluorescence signal, DAPI excitation filter (ex: 381-399 nm), TRITC emission filter (em: 571-617 nm) (MCF-7 cells [7]): did not show any fluorescence signal | logε ([4]; H2O): 4.48 | Φf ([4]; H2O): 0.04 | λabs ([4]; H2O): 497/534 | λem ([4]; H2O): 542/586/633 | λex ([4]; H2O): 461/502/529 | τ ([4]; H2O): 4.7 ns and 4.71 ns | fluorescence quantum yield ([4]; MeCN): 66% | logε ([4]; MeCN): 4.91 | red shift of absorption and emission maxima of PDI2 in the presence of XCage.8CF3CO2 ([4]; MeCN): 23-25 nm | Φf ([4]; MeCN): 0.66 | λem ([4]; MeCN): 529/568/617 | λex ([4]; MeCN): 452/482/518 | τ ([4]; MeCN): 4.47 ns | fluorescence quantum yield ([4]; water): 4%
